Counter-ions that a name gives are not always drawn. Calls of active or inactive are those of the source.
Legend:
[1] = target: Polyadenylate-binding protein 1 (Homo sapiens, UniProt P11940); experiment: blockers of PABP interaction with poly(A) – biochemical, fluorescence polarization, […] (AID 2014)
[2] = target: DNA dC->dU-editing enzyme APOBEC-3A (Homo sapiens, UniProt P31941); experiment: Dose Response confirmation of small molecule APOBEC3A DNA Deaminase Inhibitors via a fluorescence-based single-stranded DNA deaminase assay. [Related pubchem assays (depositor defined):AID493011, AID493024]; type: functional
Sequence of DNA dC->dU-editing enzyme APOBEC-3A (P31941 whole entry, the tested form may be a part): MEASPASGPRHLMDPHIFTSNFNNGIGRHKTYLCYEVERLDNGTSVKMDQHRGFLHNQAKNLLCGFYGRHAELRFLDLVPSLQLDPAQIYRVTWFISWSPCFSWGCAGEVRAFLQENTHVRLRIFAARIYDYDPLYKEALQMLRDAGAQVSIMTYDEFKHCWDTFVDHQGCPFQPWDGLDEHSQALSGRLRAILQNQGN

[3] = target: T1, Carboxy-terminal domain RNA polymerase II polypeptide A small phosphatase 1 (Homo sapiens, UniProt Q9GZU7); experiment: CTDSP1 inhibitors, concentration-response, biochemical, absorbance readout, ultra-high-throughput screen actives (AID 540297); type: functional
T1 sequence (Q9GZU7 whole entry): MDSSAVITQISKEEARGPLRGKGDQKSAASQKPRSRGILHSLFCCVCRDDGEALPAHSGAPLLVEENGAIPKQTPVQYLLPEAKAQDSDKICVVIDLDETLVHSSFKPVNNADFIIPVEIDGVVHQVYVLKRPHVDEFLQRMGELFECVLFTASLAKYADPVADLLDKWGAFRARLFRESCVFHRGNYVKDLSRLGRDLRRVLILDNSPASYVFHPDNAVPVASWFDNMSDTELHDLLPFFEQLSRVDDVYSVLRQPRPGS

[4] = target: T2, DNA dC->dU-editing enzyme APOBEC-3G (Homo sapiens, UniProt Q9HC16); type: functional
T2 sequence (Q9HC16 whole entry): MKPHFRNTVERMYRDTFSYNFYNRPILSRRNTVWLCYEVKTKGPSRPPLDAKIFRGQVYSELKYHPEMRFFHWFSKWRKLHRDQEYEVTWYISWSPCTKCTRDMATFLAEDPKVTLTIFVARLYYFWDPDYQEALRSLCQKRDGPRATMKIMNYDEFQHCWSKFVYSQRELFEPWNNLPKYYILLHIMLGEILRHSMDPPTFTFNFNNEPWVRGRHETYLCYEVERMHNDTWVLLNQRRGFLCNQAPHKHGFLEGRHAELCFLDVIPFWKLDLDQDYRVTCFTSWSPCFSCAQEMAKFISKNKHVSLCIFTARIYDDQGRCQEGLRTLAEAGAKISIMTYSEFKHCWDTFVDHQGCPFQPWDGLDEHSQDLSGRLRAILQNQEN

[5] = target: Eukaryotic translation initiation factor 4H (Homo sapiens, UniProt Q15056); experiment: eIF4H binding inhibition – biochemical, uHTS, fluorescence polarization, translation initiation inhibitor project, primary screen (AID 2012)
Aspartyl aminopeptidase = Aspartyl aminopeptidase (Plasmodium falciparum 3D7, UniProt Q8I2J3)
Procathepsin L = Procathepsin L (Homo sapiens, UniProt P07711)
Sequence of Procathepsin L (P07711 whole entry): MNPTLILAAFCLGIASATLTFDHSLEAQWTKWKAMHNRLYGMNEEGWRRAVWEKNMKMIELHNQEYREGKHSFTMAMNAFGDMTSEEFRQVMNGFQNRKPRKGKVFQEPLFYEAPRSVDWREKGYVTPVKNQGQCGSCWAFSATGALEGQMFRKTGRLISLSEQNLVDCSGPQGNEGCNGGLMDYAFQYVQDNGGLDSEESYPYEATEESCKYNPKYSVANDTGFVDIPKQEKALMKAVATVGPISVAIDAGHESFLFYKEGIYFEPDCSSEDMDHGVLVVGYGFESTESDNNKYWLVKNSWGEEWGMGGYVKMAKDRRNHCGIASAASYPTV

[6] = alpha-synuclein stem-loop translation blockers – luminescence, H4 neuroglioblastoma cells, dose confirmation, confirmation (AID 2454); type: functional, cell-based;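 further: H4 neuroglioblastoma cells carrying an alpha-synuclein 5'UTR luciferase reporter; potency for inhibition of the luciferase signal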
[7] = HEK-293T viability loss after treatment – luminescence, T-cell screen hits, cytotoxicity control for TCR NF-kB inhibitor project, dose response (AID 489026); type: functional, cell-based;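 further: cells exposed to compound about 14 hours before the viability readout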
[8] = target: T3, Nuclear receptor subfamily 0 group B member 1 (Homo sapiens, UniProt P51843); type: functional, cell-based;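 further: HEK293T cells transfected with SF-1 and DAX-1 plus StAR promoter luciferase reporter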
T3 sequence (P51843 whole entry): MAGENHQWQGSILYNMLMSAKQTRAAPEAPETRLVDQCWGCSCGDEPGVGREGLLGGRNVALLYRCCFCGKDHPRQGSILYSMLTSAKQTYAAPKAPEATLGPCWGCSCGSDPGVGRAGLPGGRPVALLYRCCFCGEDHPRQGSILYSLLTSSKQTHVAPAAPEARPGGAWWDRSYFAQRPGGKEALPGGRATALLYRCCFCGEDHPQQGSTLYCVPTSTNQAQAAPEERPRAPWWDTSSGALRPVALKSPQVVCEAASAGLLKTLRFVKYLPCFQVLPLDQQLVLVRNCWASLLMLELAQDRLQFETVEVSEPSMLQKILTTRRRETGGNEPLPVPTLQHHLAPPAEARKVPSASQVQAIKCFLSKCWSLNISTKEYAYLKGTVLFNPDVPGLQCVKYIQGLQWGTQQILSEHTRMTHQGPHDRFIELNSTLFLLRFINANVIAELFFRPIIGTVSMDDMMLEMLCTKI

[9] = luciferase reporter signal suppression in cells – H4 neuroglioma cells, luminescence, dose response (AID 1990); type: functional, cell-based
[10] = Luminescence Cell-Based Dose Response HTS to Identify Inhibitors of 5'UTR Stem-Loop Driven Prion Protein mRNA Translation in H4 Neuroglioblastoma Cells. [Related pubchem assays: 1827 (Project Summary), 1813 (Primary HTS)]; type: functional
[11] = luciferase reporter signal reduction – luminescence, H4-C neuroglioblastoma cells, dose response (AID 2458); type: functional, cell-based;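 further: H4 neuroglioblastoma cells stably carrying a luciferase reporter gene fusion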
cells [12] = type: functional, cell-based
cells [13] = type: functional, cell-based; remark: listed apart in the source
[14] = alpha-synuclein stem-loop luciferase translation blockers – H4 neuroglioma cells, luminescence, confirmation (AID 1988); type: functional, cell-based
[15] = target: T4, Voltage-gated N-type calcium channel alpha-1B subunit/Amyloid beta A4 precursor protein-binding family A member 1 (Homo sapiens, UniProt Q00975+Q02410); type: protein assay
T4 sequence (Q00975 whole entry): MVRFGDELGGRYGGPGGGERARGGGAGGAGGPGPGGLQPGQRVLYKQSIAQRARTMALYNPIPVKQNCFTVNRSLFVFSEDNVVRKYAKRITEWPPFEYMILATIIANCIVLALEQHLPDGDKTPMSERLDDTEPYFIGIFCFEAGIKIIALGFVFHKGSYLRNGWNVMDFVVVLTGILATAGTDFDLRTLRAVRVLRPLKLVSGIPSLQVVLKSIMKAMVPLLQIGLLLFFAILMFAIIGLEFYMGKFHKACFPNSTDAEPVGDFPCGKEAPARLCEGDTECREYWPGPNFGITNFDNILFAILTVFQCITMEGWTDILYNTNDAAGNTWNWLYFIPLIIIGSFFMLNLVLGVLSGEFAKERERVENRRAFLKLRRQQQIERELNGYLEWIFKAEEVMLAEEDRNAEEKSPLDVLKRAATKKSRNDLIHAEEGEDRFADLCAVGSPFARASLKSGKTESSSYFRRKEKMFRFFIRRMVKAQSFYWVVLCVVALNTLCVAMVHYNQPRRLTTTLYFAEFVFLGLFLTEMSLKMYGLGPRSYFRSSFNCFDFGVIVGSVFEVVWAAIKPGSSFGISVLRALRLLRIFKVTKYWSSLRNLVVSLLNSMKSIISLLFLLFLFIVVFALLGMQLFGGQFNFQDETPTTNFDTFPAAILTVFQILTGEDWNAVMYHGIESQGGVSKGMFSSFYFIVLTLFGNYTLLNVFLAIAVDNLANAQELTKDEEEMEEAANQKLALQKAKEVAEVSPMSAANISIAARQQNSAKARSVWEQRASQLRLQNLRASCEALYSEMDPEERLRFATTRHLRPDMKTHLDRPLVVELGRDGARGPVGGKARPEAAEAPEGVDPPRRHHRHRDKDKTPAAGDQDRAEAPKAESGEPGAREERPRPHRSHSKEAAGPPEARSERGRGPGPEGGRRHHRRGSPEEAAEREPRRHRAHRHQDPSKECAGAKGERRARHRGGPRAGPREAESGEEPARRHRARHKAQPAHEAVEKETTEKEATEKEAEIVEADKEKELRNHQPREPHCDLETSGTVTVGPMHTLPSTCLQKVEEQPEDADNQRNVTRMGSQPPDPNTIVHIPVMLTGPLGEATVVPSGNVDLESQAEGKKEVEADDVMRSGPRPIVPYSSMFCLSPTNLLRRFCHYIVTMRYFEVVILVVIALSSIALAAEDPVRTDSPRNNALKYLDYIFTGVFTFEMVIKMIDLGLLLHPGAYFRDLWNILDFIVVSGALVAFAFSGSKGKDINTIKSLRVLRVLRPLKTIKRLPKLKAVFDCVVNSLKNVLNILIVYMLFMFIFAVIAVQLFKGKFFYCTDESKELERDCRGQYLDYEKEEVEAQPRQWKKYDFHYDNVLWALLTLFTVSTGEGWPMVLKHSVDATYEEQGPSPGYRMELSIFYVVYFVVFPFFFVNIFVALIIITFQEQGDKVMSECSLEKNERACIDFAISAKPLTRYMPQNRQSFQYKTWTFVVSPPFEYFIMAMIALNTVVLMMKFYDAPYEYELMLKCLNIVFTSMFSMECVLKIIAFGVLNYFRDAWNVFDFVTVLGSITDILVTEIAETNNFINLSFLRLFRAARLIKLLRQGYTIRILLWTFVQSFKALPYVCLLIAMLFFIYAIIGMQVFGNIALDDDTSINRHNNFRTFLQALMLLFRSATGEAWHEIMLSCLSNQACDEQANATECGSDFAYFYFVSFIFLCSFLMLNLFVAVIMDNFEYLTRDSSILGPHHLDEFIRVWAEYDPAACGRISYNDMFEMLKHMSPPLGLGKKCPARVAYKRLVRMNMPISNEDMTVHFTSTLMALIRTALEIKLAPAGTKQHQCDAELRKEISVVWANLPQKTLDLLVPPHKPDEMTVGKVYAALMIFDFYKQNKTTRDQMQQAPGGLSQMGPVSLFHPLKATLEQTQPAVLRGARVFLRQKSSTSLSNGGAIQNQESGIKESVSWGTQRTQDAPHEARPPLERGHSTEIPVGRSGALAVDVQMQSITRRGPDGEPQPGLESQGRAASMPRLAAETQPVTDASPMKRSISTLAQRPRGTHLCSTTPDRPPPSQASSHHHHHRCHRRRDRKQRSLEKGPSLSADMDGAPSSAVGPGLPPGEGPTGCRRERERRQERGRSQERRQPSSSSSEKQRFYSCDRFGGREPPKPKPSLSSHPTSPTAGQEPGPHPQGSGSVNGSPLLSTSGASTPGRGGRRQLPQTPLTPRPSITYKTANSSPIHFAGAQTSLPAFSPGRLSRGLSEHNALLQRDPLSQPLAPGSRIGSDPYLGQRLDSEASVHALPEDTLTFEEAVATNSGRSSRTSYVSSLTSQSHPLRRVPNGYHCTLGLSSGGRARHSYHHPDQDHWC
T4 sequence (Q02410 whole entry): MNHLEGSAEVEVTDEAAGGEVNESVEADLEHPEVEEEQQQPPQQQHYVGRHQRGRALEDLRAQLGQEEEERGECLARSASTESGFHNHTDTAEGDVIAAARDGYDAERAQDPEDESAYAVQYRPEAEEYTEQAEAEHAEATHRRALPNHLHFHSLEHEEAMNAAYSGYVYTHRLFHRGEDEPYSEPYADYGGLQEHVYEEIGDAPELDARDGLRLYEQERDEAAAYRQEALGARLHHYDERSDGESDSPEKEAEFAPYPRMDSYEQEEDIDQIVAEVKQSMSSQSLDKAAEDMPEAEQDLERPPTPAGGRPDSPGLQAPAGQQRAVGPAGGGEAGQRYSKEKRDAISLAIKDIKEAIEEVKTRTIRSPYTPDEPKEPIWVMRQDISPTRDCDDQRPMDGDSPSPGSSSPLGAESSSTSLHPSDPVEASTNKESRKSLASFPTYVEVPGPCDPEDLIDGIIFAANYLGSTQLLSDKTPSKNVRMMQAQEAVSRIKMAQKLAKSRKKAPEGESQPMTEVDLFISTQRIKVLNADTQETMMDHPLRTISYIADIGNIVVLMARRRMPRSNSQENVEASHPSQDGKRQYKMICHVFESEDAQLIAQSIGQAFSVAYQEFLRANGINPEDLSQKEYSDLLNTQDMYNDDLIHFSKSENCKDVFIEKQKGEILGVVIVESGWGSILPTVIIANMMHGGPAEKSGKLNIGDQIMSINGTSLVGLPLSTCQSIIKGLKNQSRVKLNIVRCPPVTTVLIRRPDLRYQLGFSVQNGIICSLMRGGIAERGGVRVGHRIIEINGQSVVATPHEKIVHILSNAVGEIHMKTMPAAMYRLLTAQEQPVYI

[16] = target: T4, Voltage-gated N-type calcium channel alpha-1B subunit/Amyloid beta A4 precursor protein-binding family A member 1; type: protein assay; remark: listed apart in the source
[17] = target: T4, Voltage-gated N-type calcium channel alpha-1B subunit/Amyloid beta A4 precursor protein-binding family A member 1; experiment: disruptors of Mint-PDZ/N-type channel peptide interaction – biochemical, HTRF, SAR follow-up (AID 2489); type: functional
HeLa = experiment: viability loss in HeLa cells – cell-based, 24 h, cherry-picked samples, cytotoxicity control, dose response (AID 504726); type: functional; conditions: Homo sapiens;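 further: potency for cytotoxicity as loss of luminescence signal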
[18] = A Cell Based Secondary Assay To Explore Cytotoxicity of Compounds that Sensitize Mycobacterium Tuberculosis to Beta-Lactam Antibiotics.; type: functional
[19] = target: T2, DNA dC->dU-editing enzyme APOBEC-3G; experiment: Dose Response confirmation of small molecule APOBEC3G DNA Deaminase Inhibitors via a fluorescence-based single-stranded DNA deaminase assay. [Related pubchem assays (depositor defined):AID493012, AID493028]; type: functional
[20] = target: Induced myeloid leukemia cell differentiation protein Mcl-1 (Homo sapiens, UniProt Q07820); type: functional
[21] = target: DNA (cytosine-5)-methyltransferase 1 (Homo sapiens, UniProt P26358); experiment: inhibition of DNA methylation by DNMT1 – biochemical, fluorescent molecular beacon, confirmation (AID 602386); type: functional

Sequence of Polyadenylate-binding protein 1 (P11940 whole entry): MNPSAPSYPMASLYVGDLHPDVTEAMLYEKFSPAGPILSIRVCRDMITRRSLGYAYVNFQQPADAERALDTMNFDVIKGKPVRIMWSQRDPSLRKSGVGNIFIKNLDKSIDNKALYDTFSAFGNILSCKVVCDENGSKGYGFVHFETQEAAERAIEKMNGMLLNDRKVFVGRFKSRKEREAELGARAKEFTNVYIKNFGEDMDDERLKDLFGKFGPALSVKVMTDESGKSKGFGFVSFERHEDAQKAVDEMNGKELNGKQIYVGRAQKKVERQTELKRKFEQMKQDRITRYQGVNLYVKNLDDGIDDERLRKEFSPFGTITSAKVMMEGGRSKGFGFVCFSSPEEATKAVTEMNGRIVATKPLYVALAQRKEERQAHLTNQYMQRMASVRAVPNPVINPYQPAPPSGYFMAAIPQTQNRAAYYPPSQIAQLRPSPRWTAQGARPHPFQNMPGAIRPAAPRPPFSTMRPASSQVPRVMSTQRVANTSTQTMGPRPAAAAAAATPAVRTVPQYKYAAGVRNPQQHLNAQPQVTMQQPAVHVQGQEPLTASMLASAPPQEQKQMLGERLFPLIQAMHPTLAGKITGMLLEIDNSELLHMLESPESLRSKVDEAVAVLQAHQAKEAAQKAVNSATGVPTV

COc1ccc(C(CC(=O)N2CCCCC2)c2c(OC)cc(OC)c3c(-c4ccccc4)cc(=O)oc23)cc1 (stereo not given)
IC50 [1]: 33.4 µM (active)
IC50 [2]: 10.4 µM (active)
IC50 [3]: 4.7 µM (active)
IC50 [4]: 25.9 µM (active)
IC50 [5]: 7.25 µM (active)

Cc1ccc(Cl)cc1NC(=S)Nn1cnnc1
IC50 (Aspartyl aminopeptidase): 2.06 µM (active)
IC50 (Procathepsin L): > 59.6 µM (not active)

CC[C@]1(O)CC2CN(CCc3c([nH]c4ccccc34)[C@@](C(=O)OC)(c3cc4c(cc3OC)N(C=O)[C@H]3[C@@](O)(C(=O)OC)[C@H](OC(C)=O)[C@]5(CC)C=CCN6CC[C@]43[C@@H]65)C2)C1 (stereo not given in full) [VINCRISTINE SULFATE]
EC50 [6]: 0.055 µM (active)
IC50 [7]: > 80 µM (inactive)
IC50 [8]: > 0.278 µM (active)
EC50 [9]: < 0.1 µM (active)
EC50 [10]: < 0.1 µM (active)
EC50 [11]: 0.047 µM (active)
IC50 (cells [12]): > 67.5 µM (inactive)
EC50 (cells [13]): 0.063 µM (active)
EC50 [14]: < 0.1 µM (active)

Cc1cccc(C(=O)Nc2ccc(S(=O)(=O)N3CCOCC3)cc2C)c1
IC50 [1]: 11.2 µM (active)
IC50 [2]: 4.44 µM (active)
IC50 [4]: 9.37 µM (active)
IC50 [5]: > 100 µM (inactive)

CCOC(=O)c1sc2nc(-c3ccco3)c3c(c2c1N)CC(C)(C)OC3
IC50 [15]: 5.26 µM (active)
IC50 [16]: 9.58 µM (active)
IC50 [17]: > 56.8 µM (inactive)

Oc1ccccc1/C=N/c1ccccc1-c1nc2ccccc2[nH]1
AC50 (HeLa): 241 µM (active)

CCC(C)Nc1c2c(nc3c(-c4ccccc4)c(C)nn13)CCC2 (stereo not given)
CC50 [18]: > 40 µM (active)

Oc1cccc2cc3cccc(O)c3c(O)c12
IC50 [15]: 38.3 µM (active)
IC50 [19]: 16.9 µM (active)
IC50 [20]: 2.39 µM (active)
IC50 [16]: 19.9 µM (active)
IC50 [21]: 1.9 µM (active)

From ChEMBL document CHEMBL1201862, “PubChem BioAssay data set” (2004)
